The values below come from US20220306623A1, “PYRIDYL OR PYRIMIDYL MTOR KINASE INHIBITORS” (GLAXOSMITHKLINE INTELLECTUAL PROPERTY DEVELOPMENT LIMITED, priority 2019, published 2022).

The subject of this experiment is phosphorylated Akt at serine 473 (pAKTs473) in primary human lung fibroblasts. The experiment is described as follows: High throughput phosphorylated Akt (Ser473) in vitro immunoassay (MSD). The experiment is classed as cell-based. The note with it: Fibroblast, primary human lung fibroblasts (Lonza), 384-well, compound 1 h, PDGF-BB 10 ng/ml 10 min, read-out: mean pIC50, pAKTser473 high throughput immunoassay (converted). The source says:
Immunoassay to measure effect of test compounds on phosphorylated Akt at serine 473 (pAKTs473) in primary human lung fibroblasts (Lonza Group Ltd, Basel, Switzerland, Catalogue No. CC-2512) using the MesoScale Discovery (MSD) platform to quantify levels of total Akt and pAKTser473.
Human lung fibroblasts were routinely maintained in fibroblast basal medium supplemented with 2% foetal bovine serum (FBS), 0.1% human fibroblast growth factor (FGF)-B, 0.1% insulin, 0.1% GA-100 (Lonza Group Ltd, Basel, Switzerland, Catalogue No. CC-3132) at 37° C. in 5% CO2 according to the manufacturer's protocol.
For the assay, cells were harvested using Trypsin/EDTA, (Lonza Group Ltd, Basel, Switzerland, Catalogue No. CC-5012), at working concentration of 0.025%, resuspended to give 3×10^5 cells/ml and 50 ul/well seeded into 384-well plates (Greiner Group, Kremsmunster, Austria, Catalogue No. 781091) in media containing 0.4% FBS and incubated o/n at 37° C. in 5% CO2.
Test compounds were dissolved in 100% DMSO to give 10 mM stock solutions and serially diluted to generate an 11-point concentration response curve. Compound were further diluted by […] into 384-well V-bottom polypropylene plates (Greiner Group, Kremsmunster, Austria, Catalogue No. 781280) with media containing 0.4% FBS to give 50 µM top compound concentration in 0.5% DMSO.
Compounds were transferred to 384-well plates contacting cells (0.1% DMSO final) and incubated for 1 h at 37° C. in 5% CO2, prior to stimulation with platelet-derived growth factor (PDGF)-BB (R&D Systems, Catalogue No. 220-BB) at 10 ng/ml (final) for 10 min at RT. Cell assay plates were incubated on ice and treated with lysis buffer (Cell Signalling Technology, Catalogue No. 9806) containing protease and phosphatase inhibitors (Thermo Scientific, Catalogue No. 78444) followed by shaking for 30 min at 4° C.
MSD plates (MSD, MA6000 384-well GAR plate, Catalogue No. L21RA-2) were blocked with blocking buffer containing TBS (MSD, Cat. No. R61TX-1) with 0.5% bovine serum albumin (BSA) (Sigma Aldrich, Cat. No. A7906), 0.1% tween-20 (Sigma Aldrich, Catalogue No. P2287) and coated with rabbit-anti-human pAkt (s473) ab (Cell Signalling Technology, Catalogue No. CST #4060) at RT with shaking, followed by washing (×3) with 1×TBS wash reagent containing 0.1% Tween-20. Cell lysates (30 ul) were added and MSD plates centrifuged at 1000 rpm at 4° C. o/n.
Plates were washed with 1×TBS wash buffer (×3), prior to addition of mouse-anti-human-total Akt ab (1 mg/ml) (Upstate (Milipore), Catalogue No. 05-591) in blocking buffer and shaken at RT for 1 h. After washing with 1×TBS wash buffer (×3), plates were incubated with goat-anti-mouse SULFO-TAG detection ab (MSD, Catalogue No. R32AC-1) (1:500 in blocking buffer) for 1 h at RT. Plates were washed with 1×TBS (×3) and read buffer (2×) (MSD, Catalogue No. R92TC-1) added before detecting electrochemiluminescence (MSD Sector Imager 6000).
Data analysis was performed by determining % inhibition values for test compounds relative to the minimum (+PDGF-BB stimulation) and maximum responses (no PDGF-BB stimulation) with non-linear regression analysis to determine IC50 values for test compounds.
For `CC[C@H]1COCC(=O)N1c1cc(C2(S(C)(=O)=O)CCOCC2)cc(-c2ccc3[nH]c(CO)cc3n2)n1` [Example 26], the IC50 is 2.51 to 25.1 nM.

For `CC[C@H]1COCC(=O)N1c1cc(CS(C)(=O)=O)cc(-c2ccc3[nH]c(C)cc3n2)n1` [Example 24, (S)-5-ethyl-4-(6-(2-methyl-1H-pyrrolo[3,2-b]pyridin-5-yl)-4-((methylsulfonyl)methyl)pyridin-2-yl)morpholin-3-one], the IC50 is 2.51 to 25.1 nM.

In the case of `CC[C@H]1COCCN1c1cc(C2(S(C)(=O)=O)CCOCC2)nc(-c2ccc3[nH]c(C)cc3n2)n1` [Example 13, (3S)-3-ethyl-4-[6-(4-methanesulfonyloxan-4-yl)-2-{2-methyl-1H-pyrrolo[3,2-b]pyridin-5-yl}pyrimidin-4-yl]morpholine], the IC50 is 2.51 to 25.1 nM.

Regarding `CC[C@H]1COCCN1c1cc(CS(C)(=O)=O)nc(-c2ccc3[nH]c(CNC)cc3n2)n1` [Example 1, [(5-{4-[(3S)-3-ethylmorpholin-4-yl]-6-(methanesulfonylmethyl)pyrimidin-2-yl}-1H-pyrrolo[3,2-b]pyridin-2-yl)methyl](methyl)amine], the IC50 is 2.51 to 25.1 nM.

Turning to `CC[C@H]1COCC(=O)N1c1cc(C2(S(C)(=O)=O)CCOCC2)cc(-c2ccc3[nH]c(C)cc3n2)n1` [Example 25, (S)-5-ethyl-4-(6-(2-methyl-1H-pyrrolo[3,2-b]pyridin-5-yl)-4-(4-(methylsulfonyl)tetrahydro-2H-pyran-4-yl)pyridin-2-yl)morpholin-3-one], the IC50 was 2.51 to 25.1 nM.

Regarding `CNCc1cc2nc(-c3cc(CS(C)(=O)=O)cc(N4CCO[C@H](C)[C@H]4C)n3)ccc2[nH]1` [Example 8, 1-(5-(6-((2R,3R)-2,3-dimethylmorpholino)-4-((methylsulfonyl)methyl)pyridin-2-yl)-1Hpyrrolo[3,2-b]pyridin-2-yl)-Nmethylmethanamine], the IC50 was 2.51 to 25.1 nM.

Turning to `CC[C@H]1COCCN1c1cc(CS(=O)(=O)N(C)C)nc(-c2ccc3[nH]c(CO)cc3n2)n1` [Example 9, 1-{6-[(3S)-3-ethylmorpholin-4-yl]-2-[2-(hydroxymethyl)-1H-pyrrolo[3,2-b]pyridin-5-yl]pyrimidin-4-yl}-N,N-dimethylmethanesulfonamide], the IC50 was 2.51 to 25.1 nM.

As to `CC[C@H]1COCCN1c1cc(CS(N)(=O)=O)cc(-c2ccc3[nH]c(C)cc3n2)n1` [Example 23, (S)-(2-(3-ethylmorpholino)-6-(2-methyl-1H-pyrrolo[3,2-b]pyridin-5-yl)pyridin-4-yl)methanesulfonamide], the IC50 was 2.51 to 25.1 nM.

With `CC[C@H]1COCCN1c1cc(CS(=O)(=O)N(C)C)nc(-c2ccc3[nH]c(CNC)cc3n2)n1` [Example 16, 1-{6-[(3S)-3-ethylmorpholin-4-yl]-2-{2-[(methylamino)methyl]-1H-pyrrolo[3,2-b]pyridin-5-yl}pyrimidin-4-yl}-N,N-dimethylmethanesulfonamide], the IC50 is 2.51 to 25.1 nM.

`CCc1cc2nc(-c3nc(CS(C)(=O)=O)cc(N4C(=O)COC[C@@H]4CC)n3)ccc2[nH]1` [Example 15, (5S)-5-ethyl-4-(2-{2-ethyl-1H-pyrrolo[3,2-b]pyridin-5-yl}-6-(methanesulfonylmethyl)pyrimidin-4-yl)morpholin-3-one]: the IC50 is 2.51 to 25.1 nM.

On to `CC[C@H]1COCCN1c1cc(CS(=O)(=O)NC)nc(-c2ccc3[nH]c(CO)cc3n2)n1` [Example 10, 1-{6-[(3S)-3-ethylmorpholin-4-yl]-2-[2-(hydroxymethyl)-1H-pyrrolo[3,2-b]pyridin-5-yl]pyrimidin-4-yl}-N-methylmethanesulfonamide], for which the IC50 is 2.51 to 25.1 nM.

On to `CC[C@H]1COCC(=O)N1c1cc(CS(C)(=O)=O)nc(-c2ccc3[nH]c(C)cc3n2)n1` [Example 14, (5S)-5-ethyl-4-[6-(methanesulfonylmethyl)-2-{2-methyl-1H-pyrrolo[3,2-b]pyridin-5-yl}pyrimidin-4-yl]morpholin-3-one], for which the IC50 is 2.51 to 25.1 nM.
